Columns and labels:
T47D cells = assay: Presto Blue cell viability assay, T47D; type: cell-based, human; conditions: 96 h, two-fold dilution starting at 50 µM
Experimental: The Presto Blue cell viability assay was used to assess the growth inhibitory potential of VPC-16606 on ERα^+ T47D, MCF7, ZR75-1 and TamR3 cells. They were treated for 96 h with a two-fold dilution range of the compound starting at 50 µM.
Cell viability was determined using the Presto Blue cell viability assay (Thermo Fisher Scientific, Waltham, MA, USA). Cells were seeded in clear bottom black-walled 96-well plates at a density of 5 × 10^3 cells/well in 100 μL of their respective media. On the following day, the cells were treated with test compounds (0.001–22.5 μM) in the presence of 1 nM E2 and incubated at 37 °C. After 96 h, 30 μL of Presto Blue reagent was added and incubated for 10 min at 37 °C. The fluorescent signal from viable cells was measured at 590 nm.

androgen receptor (AR) = target: T1, androgen receptor (AR) (Homo sapiens, UniProt P10275); assay: Luciferase reporter selectivity assay in PC3 cells, AR; type: cell-based; conditions: 24 h
T1 construct: expressed in transfected cells; host or cells: PC3
T1 sequence (P10275 1-920): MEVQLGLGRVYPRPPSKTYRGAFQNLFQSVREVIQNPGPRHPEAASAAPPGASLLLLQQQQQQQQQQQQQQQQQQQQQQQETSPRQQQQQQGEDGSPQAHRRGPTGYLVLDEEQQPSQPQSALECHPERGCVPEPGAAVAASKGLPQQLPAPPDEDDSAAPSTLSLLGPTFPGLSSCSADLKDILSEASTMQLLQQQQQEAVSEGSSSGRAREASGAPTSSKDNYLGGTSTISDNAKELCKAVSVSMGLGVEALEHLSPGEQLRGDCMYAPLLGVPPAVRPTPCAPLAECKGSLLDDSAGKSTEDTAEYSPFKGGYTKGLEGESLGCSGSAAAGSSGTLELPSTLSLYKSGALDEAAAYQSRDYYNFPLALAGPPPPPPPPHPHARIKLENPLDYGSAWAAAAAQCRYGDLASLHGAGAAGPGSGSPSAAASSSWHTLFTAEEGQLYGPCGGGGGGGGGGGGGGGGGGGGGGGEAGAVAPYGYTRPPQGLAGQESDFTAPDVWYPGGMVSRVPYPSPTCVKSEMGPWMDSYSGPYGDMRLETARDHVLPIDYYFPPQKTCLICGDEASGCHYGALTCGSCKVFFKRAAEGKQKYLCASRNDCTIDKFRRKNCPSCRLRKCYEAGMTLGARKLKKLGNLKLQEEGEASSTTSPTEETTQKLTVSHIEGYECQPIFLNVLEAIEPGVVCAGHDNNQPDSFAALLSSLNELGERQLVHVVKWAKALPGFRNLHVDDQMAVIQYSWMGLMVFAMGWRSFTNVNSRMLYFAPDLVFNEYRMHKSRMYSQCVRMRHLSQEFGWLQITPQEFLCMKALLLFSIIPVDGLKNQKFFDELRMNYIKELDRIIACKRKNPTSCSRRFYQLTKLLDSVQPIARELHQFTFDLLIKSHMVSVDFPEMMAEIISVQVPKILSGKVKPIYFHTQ
Experimental: Figure 4 Further activity profile of VPC-16606. (A,B) Chromatin immunoprecipitation (ChIP) analysis of ERα binding to the pS2 enhancer, or the GAPDH promoter, in MCF7 cells. Where indicated, ERα was stimulated with 1 nM E2 or dimethyl sulfoxide (DMSO) alone, and the compound was administered at a 6 μM concentration. Sheared chromatin-protein complexes were precipitated with the ERα antibody, reverse cross-linked and analyzed by quantitative PCR. The results are normalized as fold enrichment over precipitation with a rabbit isotype control IgG antibody for each condition tested. Error bars indicate standard error of the mean (SEM) for 3 independent experiments performed in triplicates. Fold enrichment from the compound tested condition (ERα antibody) was statistically compared against DMSO + E2 with a two-tailed t-test (unpaired) *** indicates p-value <0.001. (C) Specificity of VPC-16606 was evaluated in the luciferase reporter assay. PC3 cells were transfected with plasmids expressing androgen receptor (AR), progesterone receptor (PR) or glucocorticoid receptor (GR) along with their responsive luciferase reporter constructs bearing androgen response element (ARE), progesterone response element (PRE) or glucocorticoid response element (GRE), respectively. […] Y-axis represents relative luminescence (RLU) after normalizing to constitutive renilla reporter. […]

ERβ LBD = ERβ LBD (Homo sapiens, UniProt Q92731); assay: TR-FRET coactivator peptide displacement assay with ERβ-LBD; type: biochemical; conditions: purified ERβ LBD
ERβ LBD, sequence (Q92731 264-498 limits assumed, species assumed): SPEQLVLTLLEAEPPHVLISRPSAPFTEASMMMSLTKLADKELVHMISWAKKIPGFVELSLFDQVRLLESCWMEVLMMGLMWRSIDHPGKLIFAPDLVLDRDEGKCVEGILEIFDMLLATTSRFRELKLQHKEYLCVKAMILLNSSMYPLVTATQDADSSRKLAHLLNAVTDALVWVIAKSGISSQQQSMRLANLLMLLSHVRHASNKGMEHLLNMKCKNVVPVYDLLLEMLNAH
Description: Given that tamoxifen acts as a pure antagonist of ERβ [34], the effect of VPC-16606 on ERβ and its corresponding implications in breast cancer will also need to be evaluated. Moreover, the role of ERβ in breast cancer biology is not yet clear, with some evidence pointing towards ERβ exerting proliferating effects in the absence of ERα [36].
Supplementary Materials: Benzothiophenone Derivatives Targeting Mutant Forms of Estrogen Receptor-α in Hormone-Resistant Breast Cancers
Figure S1. Effect of VPC-16606 on viability of PC3 cells as measured in the Presto Blue assay. […]
Figure S2. TR-FRET Assay showing displacement of Fluorescein labelled PGC1 α peptide by VPC-16606 upon incubation with ER β-LBD. OHT was used at 1µM. Error bars represent standard deviation for two independent experiments performed in triplicates. […]

## CC(=O)N(/N=C1\Sc2c(C)cccc2C1=O)c1ccccc1Cl [VPC-16606]
T47D cells
  Cell growth (Presto Blue viability): significantly reduce the growth
Androgen receptor (AR); 50 µM
  Effect on AR activity (luciferase): some effect
Androgen receptor (AR); doses up to 25 µM
  Effect on AR activity (luciferase): does not affect the activity
ERβ LBD
  Displacement of fluorescein labelled PGC1α peptide from ERβ LBD (TR-FRET): resulted in peptide displacement
